In patent US20090275611A1, “Compounds Which Modulate The CB2 Receptor” (BOEHRINGER INGELHEIM INTERNATIONAL GMBH, priority 2006, published 2009):

Molecular target: T1, human CB2R (Homo sapiens, UniProt P34972)
T1 construct: host or cells: CHO cells
Test: CB2R mediated modulation of cAMP synthesis
Type: cell-based
Details: qualitative statement; found 'through the use of the above described assays'; CHO cells expressing human CB2R, forskolin-stimulated cAMP
Experimental: B. CB2R Mediated Modulation of cAMP Synthesis:
CHO cells expressing human CB2R (Euroscreen) were plated at a density of 5000 cells per well in 384 well plates and incubated overnight at 37° C. After removing the media, the cells were treated with test compounds diluted in stimulation buffer containing 1 mM IBMX, 0.25% BSA and 10 uM Forskolin. The assay was incubated for 30 minutes at 37° C. Cells were lysed and the cAMP concentration was measured using DiscoverX-XS cAMP kit, following the manufacturer's protocol. In this setting, agonists will decrease forskolin induced production of cAMP while inverse agonists will further increase forskolin induced production of cAMP. EC50 of agonists were calculated as follows. The maximal amount of cAMP produced by forskolin compared to the level of cAMP inhibited by 1 uM CP55940 is defined as 100%. The EC50 value of each test compound was determined as the concentration at which 50% of the forskolin-stimulated cAMP synthesis was inhibited. Data was analyzed using a four-parameter logistic model. (Model 205 of XLfit 4.0).

T1 sequence (P34972 whole entry): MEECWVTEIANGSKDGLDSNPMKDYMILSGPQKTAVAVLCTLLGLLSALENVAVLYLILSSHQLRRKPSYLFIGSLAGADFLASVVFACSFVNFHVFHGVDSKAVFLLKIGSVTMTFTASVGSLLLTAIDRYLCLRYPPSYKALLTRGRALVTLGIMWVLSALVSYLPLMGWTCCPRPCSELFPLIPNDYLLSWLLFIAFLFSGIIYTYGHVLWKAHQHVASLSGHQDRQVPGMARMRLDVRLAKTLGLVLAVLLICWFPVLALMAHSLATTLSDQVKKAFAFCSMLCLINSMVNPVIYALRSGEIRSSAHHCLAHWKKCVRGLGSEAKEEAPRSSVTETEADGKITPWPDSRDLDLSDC

Structure (SMILES)	agonistic activity
Cc1ccc(C)c(Nc2ccc(CN(C)CC(O)c3ccccc3)cn2)c1 (centres unmarked) [Example 7, 2-{[6-(2,5-dimethyl-phenylamino)-pyridin-3-ylmethyl]-methyl-amino}-1-phenyl-ethanol]	agonistic activity
Cc1ccc(Cl)c(Nc2ccc(CN(C)CC(O)c3ccccc3)cc2)c1 (centres unmarked) [Example 3, 2-{[4-(2-chloro-5-methyl-phenylamino)-benzyl]-methyl-amino}-1-phenyl-ethanol]	agonistic activity
Cc1ccc(Cl)c(Nc2ccc(CN(C)CC(O)c3ccccc3)cn2)c1 (centres unmarked) [Example 8, 2-{[6-(2-chloro-5-methyl-phenylamino)-pyridin-3-ylmethyl]-methyl-amino}-1-phenyl-ethanol]	agonistic activity
CN(Cc1ccc(Nc2ccccc2)cc1)CC(O)c1ccccc1 (centres unmarked) [Example 2, 2-[methyl-(4-phenylamino-benzyl)-amino]-1-phenyl-ethanol]	agonistic activity
CN(Cc1ccc(Nc2ccccc2Cl)cc1)CC(O)c1ccccc1 (centres unmarked) [Example 4, 2-{[4-(2-chloro-phenylamino)-benzyl]-methyl-amino}-1-phenyl-ethanol]	agonistic activity
Cc1ccccc1Nc1ccc(CN(C)CC(O)c2ccccc2)cc1 (centres unmarked) [Example 6, 2-[methyl-4(o-tolylamino-benzyl)-amino]-1-phenyl-ethanol]	agonistic activity
CN(Cc1ccc(Nc2ccccc2Cl)nc1)CC(O)c1ccccc1 (centres unmarked) [Example 10, 2-{[6-(2-chloro-phenylamino)-pyridin-3-ylmethyl]-methyl-amino}-1-phenyl-ethanol]	agonistic activity
Cc1ccccc1Nc1ccc(CN(C)CC(O)c2ccccc2)cn1 (centres unmarked) [Example 11, 2-[methyl-(6-o-tolylamino-pyridin-3-ylmethyl)-amino]-1-phenyl-ethanol]	agonistic activity
CN(Cc1ccc(Nc2ccccc2)cc1)C[C@H](O)c1ccccc1 [Example 15, (R)-2-[Methyl-(4-phenylamino-benzyl)-amino]-1-phenyl-ethanol]	agonistic activity
CN(Cc1cnc2ccccc2c1)C[C@H](O)c1ccccc1 [Example 20, (R)-2-(Methyl-quinolin-3-ylmethyl-amino)-1-phenyl-ethanol]	agonistic activity
O[C@H](CNCc1cnc2ccccc2c1)c1ccccc1 [Example 22, (S)-1-Phenyl-2-[(quinolin-3-ylmethyl)-amino]-ethanol]	agonistic activity
CN(Cc1ccc(Oc2ccccc2)cc1)C[C@H](O)c1ccccc1 [Example 19, (R)-2-[Methyl-(4-phenoxy-benzyl)-amino]-1-phenyl-ethanol]	agonistic activity
CN(Cc1ccc(S(=O)(=O)c2ccccc2)cc1)C[C@H](O)c1ccccc1 [Example 17, (R)-2-[(4-Benzenesulfonyl-benzyl)-methyl-amino]-1-phenyl-ethanol]	agonistic activity
Cc1ccc(Cl)cc1Nc1ccc(CN(C)CC(O)c2ccccc2)cn1 (centres unmarked) [Example 9, 2-{[6-(5-chloro-2-methyl-phenylamino)-pyridin-3-ylmethyl]-methyl-amino}-1-phenyl-ethanol]	agonistic activity
CN(Cc1ccc(Nc2ccccc2Cl)cc1)C[C@H](O)c1ccccc1 [Example 5, (R)-2-{[4-(2-chloro-phenylamino)-benzyl]-methyl-amino}-1-phenyl-ethanol]	agonistic activity
Cc1ccc(C)c(Nc2ccc(CN(C)CC(O)c3ccccc3)cc2)c1 (centres unmarked) [Example 1, 2-{[4-(2,5-Dimethyl-phenylamino)-benzyl]-methyl-amino}-1-phenyl-ethanol]	agonistic activity
CN(Cc1ccc(Oc2ccccc2)nc1)C[C@@H](O)c1ccccc1 [Example 21, (S)-2-[Methyl-(6-phenoxy-pyridin-3-ylmethyl)-amino]-1-phenyl-ethanol]	agonistic activity
